Data from patent US10131652B2, “Pyrimidinyloxy benzene derivatives as herbicides” (E. I. DU PONT DE NEMOURS AND COMPANY, priority 2014, dated 2018).
Read-outs that look alike come from different tables or passages of the source.

Legend:
Assay type in all cases: in vivo
[1] = tested on: giant foxtail (Setaria faberii); test: Test B pre-/postemergence plant response; settings: Setaria faberi, 240 h, read-out: Plant response rating, Foxtail, Giant; for pest or weed control at 125 g/ha: 125 g ai/ha; for pest or weed control at 500 g/ha: 500 g ai/ha
Outline: (§1)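 Greenhouse pots, loam/sand soil; compound formulated with surfactant in non-phytotoxic solvent. Preemergence soil spray and postemergence spray at 1–2 leaf stage run simultaneously. Visual injury, 0–100, about 10 days post-treatment.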

[2] = tested on: corn (Zea mays); test: Test B pre-/postemergence plant response; settings: Zea mays, 240 h; for Corn plant response rating (crop injury, 0 = no effect, 100 = complete kill) at 125 g/ha: 125 g ai/ha; for Corn plant response rating (crop injury, 0 = no effect, 100 = complete kill) at 500 g/ha: 500 g ai/ha
Outline: as §1

[3] = tested on: pigweed (Amaranthus retroflexus); test: Test B pre-/postemergence plant response; settings: Amaranthus retroflexus, 240 h, read-out: Plant response rating, Pigweed; for pest or weed control at 125 g/ha: 125 g ai/ha; for pest or weed control at 500 g/ha: 500 g ai/ha
Outline: as §1

[4] = tested on: wheat (Triticum aestivum); test: Test B pre-/postemergence plant response; settings: Triticum aestivum, 240 h, read-out: Plant response rating, Wheat; for plant injury at 125 g/ha: 125 g ai/ha; for plant injury at 500 g/ha: 500 g ai/ha
Outline: as §1

[5] = tested on: barnyardgrass (Echinochloa crus-galli); test: Test B pre-/postemergence plant response; settings: Echinochloa crus-galli, 240 h, read-out: Plant response rating, Barnyardgrass; for pest or weed control at 125 g/ha: 125 g ai/ha; for pest or weed control at 500 g/ha: 500 g ai/ha
Outline: as §1

[6] = tested on: blackgrass (Alopecurus myosuroides); test: Test D pre-/postemergence plant response; settings: Alopecurus myosuroides; for pest or weed control at 16 g/ha: 16 g ai/ha; for pest or weed control at 31 g/ha: 31 g ai/ha; for pest or weed control at 62 g/ha: 62 g ai/ha; for pest or weed control at 125 g/ha: 125 g ai/ha
Outline: (§2)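 Visual injury scoring (0–100) at 13 to 15 days in greenhouse. Preemergence sprays on seeded loam/sand; postemergence sprays on 1–4 leaf plants.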

[7] = tested on: giant foxtail (Setaria faberii); test: Test D pre-/postemergence plant response; settings: Setaria faberi; for pest or weed control at 16 g/ha: 16 g ai/ha; for pest or weed control at 31 g/ha: 31 g ai/ha; for pest or weed control at 62 g/ha: 62 g ai/ha; for pest or weed control at 125 g/ha: 125 g ai/ha
Outline: as §2

[8] = tested on: morningglory (Ipomoea coccinea); test: Test D pre-/postemergence plant response; settings: Ipomoea; for pest or weed control at 16 g/ha: 16 g ai/ha; for pest or weed control at 31 g/ha: 31 g ai/ha; for pest or weed control at 62 g/ha: 62 g ai/ha; for pest or weed control at 125 g/ha: 125 g ai/ha
Outline: as §2

[9] = tested on: galium (catchweed bedstraw, Galium aparine); test: Test D pre-/postemergence plant response; settings: Galium; for pest or weed control at 16 g/ha: 16 g ai/ha; for pest or weed control at 31 g/ha: 31 g ai/ha; for pest or weed control at 62 g/ha: 62 g ai/ha; for pest or weed control at 125 g/ha: 125 g ai/ha
Outline: as §2

[10] = tested on: ragweed (common ragweed, Ambrosia elatior); test: Test D pre-/postemergence plant response; settings: Ambrosia artemisiifolia, post-emergence, Postemergence, scale 0 to 100 (0 no effect, 100 complete control), read-out: Ragweed plant response rating
Outline: as §2

[11] = post-emergence, postemergence, 0 to 100 scale, 0 no effect, 100 complete control
[12] = post-emergence, Postemergence, 0 to 100 scale (0 no effect, 100 complete control)
[13] = pre-emergence, Preemergence, 0 to 100 scale where 0 is no effect and 100 is complete control
[14] = post-emergence, Postemergence, scale 0 to 100 (0 no effect, 100 complete control), read-out: Blackgrass plant response rating
[15] = post-emergence, Postemergence, scale 0 to 100, 0 no effect, 100 complete control, read-out: Plant response rating, Blackgrass
[16] = pre-emergence, Preemergence, scale 0 to 100 (0 no effect, 100 complete control), read-out: Plant response rating, Blackgrass
[17] = post-emergence, Postemergence, scale 0 to 100 (0 no effect, 100 complete control), read-out: Foxtail, Giant plant response rating
[18] = post-emergence, Postemergence, scale 0 to 100, 0 no effect, 100 complete control, read-out: Plant response rating, Foxtail, Giant
[19] = pre-emergence, Preemergence, scale 0 to 100 (0 no effect, 100 complete control), read-out: Plant response rating, Foxtail, Giant
[20] = post-emergence, Postemergence, scale 0 to 100 (0 no effect, 100 complete control), read-out: Morningglory plant response rating
[21] = post-emergence, Postemergence, scale 0 to 100, 0 no effect, 100 complete control, read-out: Plant response rating, Morningglory
[22] = pre-emergence, Preemergence, scale 0 to 100 (0 no effect, 100 complete control), read-out: Plant response rating, Morningglory
[23] = post-emergence, Postemergence, scale 0 to 100 (0 no effect, 100 complete control), read-out: Galium plant response rating
[24] = post-emergence, Postemergence, scale 0 to 100, 0 no effect, 100 complete control, read-out: Plant response rating, Galium
[25] = pre-emergence, Preemergence, scale 0 to 100 (0 no effect, 100 complete control), read-out: Plant response rating, Galium

FC(F)(F)c1cc(-c2ccccc2Oc2ncc(Cl)cn2)on1 [Compound 63, 5-chloro-2-[2-[3-(trifluoromethyl)-5-isoxazolyl]phenoxy]pyrimidine]
pest or weed control at 125 g/ha [1, 11]: 70%
pest or weed control at 500 g/ha [1, 12]: 80%
pest or weed control at 125 g/ha [1, 13]: 100%
pest or weed control at 500 g/ha [1, 13]: 100%
Corn plant response rating (crop injury, 0 = no effect, 100 = complete kill) at 125 g/ha [2, 11]: 20%
Corn plant response rating (crop injury, 0 = no effect, 100 = complete kill) at 500 g/ha [2, 12]: 20%
Corn plant response rating (crop injury, 0 = no effect, 100 = complete kill) at 125 g/ha [2, 13]: 10%
Corn plant response rating (crop injury, 0 = no effect, 100 = complete kill) at 500 g/ha [2, 13]: 30%
pest or weed control at 125 g/ha [3, 11]: 100%
pest or weed control at 500 g/ha [3, 12]: 100%
pest or weed control at 125 g/ha [3, 13]: 100%
pest or weed control at 500 g/ha [3, 13]: 100%
plant injury at 125 g/ha [4, 11]: 0%
plant injury at 500 g/ha [4, 12]: 50%
plant injury at 125 g/ha [4, 13]: 20%
plant injury at 500 g/ha [4, 13]: 40%
pest or weed control at 125 g/ha [5, 11]: 80%
pest or weed control at 500 g/ha [5, 12]: 100%
pest or weed control at 125 g/ha [5, 13]: 90%
pest or weed control at 500 g/ha [5, 13]: 100%
pest or weed control at 16 g/ha [6, 14]: 5%
pest or weed control at 31 g/ha [6, 14]: 10%
pest or weed control at 62 g/ha [6, 15]: 20%
pest or weed control at 125 g/ha [6, 15]: 25%
pest or weed control at 125 g/ha ([6]; pre-emergence, Preemergence, read-out: Plant response rating (scale 0 to 100), Blackgrass): 90%
pest or weed control at 16 g/ha [6, 16]: 30%
pest or weed control at 31 g/ha [6, 16]: 85%
pest or weed control at 62 g/ha [6, 16]: 90%
pest or weed control at 16 g/ha [7, 17]: 0%
pest or weed control at 31 g/ha [7, 17]: 5%
pest or weed control at 62 g/ha [7, 18]: 10%
pest or weed control at 125 g/ha [7, 18]: 20%
pest or weed control at 125 g/ha ([7]; pre-emergence, Preemergence, read-out: Plant response rating (scale 0 to 100), Foxtail, Giant): 100%
pest or weed control at 16 g/ha [7, 19]: 30%
pest or weed control at 31 g/ha [7, 19]: 80%
pest or weed control at 62 g/ha [7, 19]: 98%
pest or weed control at 16 g/ha [8, 20]: 50%
pest or weed control at 31 g/ha [8, 20]: 50%
pest or weed control at 62 g/ha [8, 21]: 98%
pest or weed control at 125 g/ha [8, 21]: 70%
pest or weed control at 125 g/ha ([8]; pre-emergence, Preemergence, read-out: Plant response rating (scale 0 to 100), Morningglory): 60%
pest or weed control at 16 g/ha [8, 22]: 0%
pest or weed control at 31 g/ha [8, 22]: 0%
pest or weed control at 62 g/ha [8, 22]: 25%
pest or weed control at 16 g/ha [9, 23]: 60%
pest or weed control at 31 g/ha [9, 23]: 70%
pest or weed control at 62 g/ha [9, 24]: 70%
pest or weed control at 125 g/ha [9, 24]: 70%
pest or weed control at 125 g/ha ([9]; pre-emergence, Preemergence, read-out: Plant response rating (scale 0 to 100), Galium): 98%
pest or weed control at 16 g/ha [9, 25]: 75%
pest or weed control at 31 g/ha [9, 25]: 98%
pest or weed control at 62 g/ha [9, 25]: 98%
pest or weed control at 16 g/ha ([10]; 16 g ai/ha): 10%
pest or weed control at 31 g/ha ([10]; 31 g ai/ha): 40%
